Columns and labels:
Assay type in all cases: functional, cell-based
[1] = test system: MDA-MB-435; test: Cytotoxicity against human MDA-MB-435 cells assessed as inhibition of cell proliferation measured after 68 hrs by MTT assay; details: MDA-MB-435, 68 h
[2] = test system: Huh-7; test: Cytotoxicity against human Huh-7 cells assessed as inhibition of cell proliferation measured after 68 hrs by MTT assay; details: Huh-7, 68 h
[3] = test system: MDA-MB-231; test: Cytotoxicity against human MDA-MB-231 cells assessed as inhibition of cell proliferation measured after 68 hrs by MTT assay; details: MDA-MB-231, 68 h
[4] = test system: NCI-H460; test: Cytotoxicity against human NCI-H460 cells assessed as inhibition of cell proliferation measured after 68 hrs by MTT assay; details: NCI-H460, 68 h
[5] = test system: HT-29; test: Cytotoxicity against human HT-29 cells assessed as inhibition of cell proliferation measured after 68 hrs by MTT assay; details: HT-29, 68 h
[6] = test system: A549; test: Cytotoxicity against human A549 cells assessed as inhibition of cell proliferation measured after 68 hrs by MTT assay; details: A549, 68 h

`C/C=C(\C)[C@@H](O)[C@@H](C)/C=C(C)/C=C/C[C@H](C)/C=C/c1oc(=O)c(C)c(O)c1C` was tested, and the IC50 [1] was greater than 50 µM, the IC50 [2] was greater than 50 µM and the IC50 [3] was greater than 50 µM. The IC50 [4] was greater than 50 µM, the IC50 [5] was greater than 50 µM and the IC50 [6] was greater than 50 µM.

With `C/C=C(\C)[C@@H](O)[C@@H](C)/C=C(C)/C=C/C[C@H](C)/C=C/c1oc(OC)c(C)c(=O)c1C` the IC50 [1] was greater than 50 µM, the IC50 [2] was greater than 50 µM and the IC50 [3] was greater than 50 µM. It also gave an IC50 [4] greater than 50 µM, an IC50 [5] greater than 50 µM and an IC50 [6] greater than 50 µM.

Molecule `C/C=C(\C)[C@@H](O)[C@@H](C)/C=C(C)/C=C/C[C@H](C)/C=C/C(=O)CC` has an IC50 [1] greater than 50 µM, an IC50 [2] greater than 50 µM and an IC50 [3] greater than 50 µM. It also gave an IC50 [4] greater than 50 µM, an IC50 [5] greater than 50 µM and an IC50 [6] greater than 50 µM.

Molecule `C/C=C(\C)[C@@H](O[C@@H]1O[C@H](CO)[C@@H](O)[C@H](O)[C@H]1O)[C@@H](C)/C=C(C)/C=C/C[C@H](C)/C=C/c1oc(OC)c(C)c(=O)c1C` (stereo in doubt) has an IC50 [1] of 0.26 µM, an IC50 [2] of 1.18 µM and an IC50 [3] of 1 µM. For the same molecule, the IC50 [4] was 0.66 µM, the IC50 [5] was 2.22 µM and the IC50 [6] was 0.75 µM.

In the case of `COc1cccc2c1C(=O)c1c(O)c3c(c(O)c1C2=O)C[C@@](O)(C(=O)CO)C[C@@H]3O[C@H]1C[C@H](N)[C@@H](O)[C@H](C)O1` [EPIRUBICIN], the IC50 [1] is reported as 0.23 µM, the IC50 [2] is reported as 9.12 µM and the IC50 [3] is reported as 1.2 µM. The IC50 [4] was 0.06 µM, the IC50 [5] was 3.36 µM and the IC50 [6] was 1.32 µM.

Source: ChEMBL document CHEMBL5143538, “Discovery, Structure Correction, and Biosynthesis of Actinopyrones, Cytotoxic Polyketides from the Deep-Sea Hydrothermal-Vent-Derived Streptomyces sp. SCSIO ZS0520” (J Nat Prod, 2022)
